From patent US11377441B2, “Covalent inhibitors of KRAS” (Araxes Pharma LLC, priority 2017, dated 2022) come the findings set out here.

The test has as its target T1, KRAS G12C 1-169, his-tagged protein, GDP-loaded (Homo sapiens, UniProt P01116, G12C).
T1 construct: KRAS G12C 1-169, his-tagged protein, GDP-loaded
The test can be described thus: Biochemical assay: covalent modification of KRAS G12C measured by mass spectrometry (RapidFire/TOF or Q-Exactive). Type of test: binding. To be noted: covalent binding to (modification of) KRAS G12C after a ten minute incubation period. A digest of the protocol: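 GDP-loaded KRAS G12C 1-169 (his-tagged) at 2 μM or 0.5 μM in 20 mM Hepes, 150 mM NaCl, 1 mM MgCl2, incubated with compound at 100, 30 or 10 μM at room temperature for 10 min, 30 min, 2 h or 24 h, then quenched with formic acid. Intact-protein LC-MS, deconvolved; percent modification from modified versus unmodified protein.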
For `C=CC(=O)N1C[C@H](C)N(c2nc(N3CC(N(C)C)C3)nc3c(F)c(-c4c(C)ccc5[nH]nc(N)c45)c(Cl)cc23)C[C@H]1C` (atropisomer, axis not shown) [Compound 89, 1-((2R,5S)-4-((R)-7-(3-amino-5-methyl-1H-indazol-4-yl)-6-chloro-2-(3-(dimethylamino)azetidin-1-yl)-8-fluoroquinazolin-4-yl)-2,5-dimethylpiperazin-1-yl)prop-2-en-1-one], the Binding % result is given as “+++ (+++ indicates binding activity greater than 80%)”.
As for `C=CC(=O)N1CCN(c2nc(N3CC(N(C)C)C3)nc3c(F)c(-c4c(C)ccc5[nH]nc(C)c45)c(Cl)cc23)CC1CC#N` (stereo not shown) [Compound 270, 2-(1-acryloyl-4-(6-chloro-7-(3,5-dimethyl-1H-indazol-4-yl)-2-(3-(dimethylamino)azetidin-1-yl)-8-fluoroquinazolin-4-yl)piperazin-2-yl)acetonitrile], the Binding % result is reported as “+++ (+++ indicates binding activity greater than 80%)”.
To `C=CC(=O)N1C[C@H](C)N(c2nc(N3CC(NC)C3)nc3c(F)c(-c4c(C)ccc5[nH]nc(C)c45)c(Cl)cc23)C[C@H]1C` [Compound 140, 1-((2R,5S)-4-(6-chloro-7-(3,5-dimethyl-1H-indazol-4-yl)-8-fluoro-2-(3-(methylamino)azetidin-1-yl)quinazolin-4-yl)-2,5-dimethylpiperazin-1-yl)prop-2-en-1-one] belongs “+++ (+++ indicates binding activity greater than 80%)”.
The entry for `C=CC(=O)N1C[C@H](C)N(c2nc(OC[C@H]3COCCN3C)nc3c(F)c(-c4c(C)ccc5[nH]nc(C6CC6)c45)c(Cl)cc23)C[C@H]1C` [Compound 180, 1-((2R,5S)-4-(6-chloro-7-(3-cyclopropyl-5-methyl-1H-indazol-4-yl)-8-fluoro-2-(((R)-4-methymorpholin-3-yl)methoxy)quinazolin-4-yl)-2,5-dimethylpiperazin-1-yl)prop-2-en-1-one] is “++ (++ indicates binding activity from 50 to 80%)”; for `C=CC(=O)N1C[C@H](C)N(c2nc(OCCN3CCC(F)(F)C3)nc3c(F)c(-c4c(C)ccc5[nH]nc(C6CC6)c45)c(Cl)cc23)C[C@H]1C` (atropisomer, axis not shown) [Compound 116, 1-((2R,5S)-4-((S)-6-chloro-7-(3-cyclopropyl-5-methyl-1H-indazol-4-yl)-2-(2-(3,3-difluoropyrrolidin-1-y)ethoxy)-8-fluoroquinazolin-4-yl)-2,5-dimethylpiperazin-1-yl)prop-2-en-1-one] it is “+ (+ indicates binding activity greater than 0% and up to 50%)”; for `C=CC(=O)N1C[C@H](C)N(c2nc(N3CC(N(C)C)C3)nc3c(F)c(-c4cccc5c(Cl)n[nH]c45)c(Cl)cc23)C[C@H]1C` [Compound 158, 1-((2R,5S)-4-(6-chloro-7-(3-chloro-1H-indazol-7-yl)-2-(3-(dimethylamino)azetidin-1-yl)-8-fluoroquinazolin-4-yl)-2,5-dimethylpiperazin-1-yl)prop-2-en-1-one] it is “++ (++ indicates binding activity from 50 to 80%)”.
To `C=CC(=O)N1C[C@H](C)N(c2nc(N3CC(N(C)C)C3)nc3c(F)c(-c4ccc(F)c5[nH]ncc45)c(Cl)cc23)C[C@H]1C` [Compound 29, 1-((2R,5S)-4-(6-chloro-2-(3-(dimethylamino)azetidin-1-yl)-8-fluoro-7-(7-fluoro-1H-indazol-4-yl)quinazolin-4-yl)-2,5-dimethylpiperazin-1-yl)prop-2-en-1-one] belongs “+ (+ indicates binding activity greater than 0% and up to 50%)”; to `C=CC(=O)N1C[C@H](C)N(c2nc(N3CC(NC)C3)nc3c(F)c(-c4c(C)ccc5[nH]nc(C6CC6)c45)c(Cl)cc23)C[C@H]1C` [Compound 209, 1-((2R,5S)-4-((R)-6-chloro-7-(3-cyclopropyl-5-methyl-1H-indazol-4-yl)-8-fluoro-2-(3-(methylamino)azetidin-1-yl)quinazolin-4-yl)-2,5-dimethylpiperazin-1-yl)prop-2-en-1-one], “+++ (+++ indicates binding activity greater than 80%)”; to `C=CC(=O)N1CCN(c2nc(OC[C@@H]3CCCN3C)nc3c(F)c(-c4c(C)ccc5cn[nH]c45)c(Cl)cc23)CC1CC#N` (stereo partly drawn) [Compound 268, 2-(1-acryloyl-4-(6-chloro-8-fluoro-7-(6-methyl-1H-indazol-7-yl)-2-(((S)-1-methylpyrrolidin-2-yl)methoxy)quinazolin-4-yl)piperazin-2-yl)acetonitrile], “+++ (+++ indicates binding activity greater than 80%)”.
As to `C=CC(=O)N1C[C@H](C)N(c2nc(OCCN3CCOCC3)nc3c(F)c(-c4c(C)ccc5[nH]nc(N)c45)c(Cl)cc23)C[C@H]1C` (atropisomer, axis not shown) [Compound 59, 1-((2R,5S)-4-((R)-7-(3-amino-5-methyl-1H-indazol-4-yl)-6-chloro-8-fluoro-2-(2-morpholinoethoxy)quina-zolin-4-yl)-2,5-dimethylpiperazin-1-yl)prop-2-en-1-one], the Binding % result was “+++ (+++ indicates binding activity greater than 80%)”.
To `[2H]C([2H])([2H])N(C1CN(c2nc(N3C[C@@H](C)N(C(=O)C=C)C[C@@H]3C)c3cc(Cl)c(-c4c(C)ccc5cnn(C)c45)c(F)c3n2)C1)C([2H])([2H])[2H]` (atropisomer, axis not shown) [Compound 211, 1-((2R,5S)-4-((S)-6-chloro-7-(1,6-dimethyl-1H-indazol-7-yl)-2-(3-(di-perdeuteromethylamino)azetidin-1-yl)-8-fluoroquinazolin-4-yl)-2,5-dimethylpiperazin-1-yl)prop-2-en-1-one] belongs “+ (+ indicates binding activity greater than 0% and up to 50%)”; to `C=CC(=O)N1C[C@H](C)N(c2nc(N3CC(N(C)C)C3)nc3c(F)c(-c4cccc5ccn(C)c45)c(Cl)cc23)C[C@H]1C` [Compound 138, 1-((2R,5S)-4-(6-chloro-2-(3-(dimethylamino)azetidin-1-yl)-8-fluoro-7-(1-methyl-1H-indol-7-yl)quinazolin-4-yl)-2,5-dimethylpiperazin-1-yl)prop-2-en-1-one], “+++ (+++ indicates binding activity greater than 80%)”; to `[2H]C([2H])([2H])N(C1CN(c2nc(N3C[C@@H](C)N(C(=O)C=C)C[C@@H]3C)c3cc(Cl)c(-c4c(C)ccc5[nH]nc(C6CC6)c45)c(F)c3n2)C1)C([2H])([2H])[2H]` (atropisomer, axis not shown) [Compound 224, 1-((2R,5S)-4-((R)-6-chloro-7-(3-cyclopropyl-5-methyl-1H-indazol-4-yl)-2-(3-(di-perdeuteromethylamino)azetidin-1-yl)-8-fluoroquinazolin-4-yl)-2,5-dimethylpiperazin-1-yl)prop-2-en-1-one], “+ (+ indicates binding activity greater than 0% and up to 50%)”.
The entry for `C=CC(=O)N1C[C@H](C)N(c2nc(N3CC(N(C)C)C3)nc3c(F)c(-c4c(C)ccc5[nH]nc(N)c45)c(Cl)cc23)C[C@H]1C` (atropisomer, axis not shown) [Compound 90, 1-((2R,5S)-4-((S)-7-(3-amino-5-methyl-1H-indazol-4-yl)-6-chloro-2-(3-(dimethylamino)azetidin-1-yl)-8-fluoroquinazolin-4-yl)-2,5-dimethylpiperazin-1-yl)prop-2-en-1-one] is “+ (+ indicates binding activity greater than 0% and up to 50%)”.
For the compound `C=CC(=O)N1C[C@H](C)N(c2nc(N3CC(N(C)C)C3)nc3c(F)c(-c4c(C)ccc5[nH]nc(C)c45)c(Cl)cc23)C[C@H]1C` (atropisomer, axis not shown) [Compound 98, 1-((2R,5S)-4-((R)-6-chloro-7-(3,5-dimethyl-1H-indazol-4-yl)-2-(3-(dimethylamino)azetidin-1-yl)-8-fluoroquinazolin-4-yl)-2,5-dimethylpiperazin-1-yl)prop-2-en-1-one], the Binding % entry was “+++ (+++ indicates binding activity greater than 80%)”.
In the case of `C=CC(=O)N1[C@H](C)CN(c2nc(N3CC(N(C)C)C3)nc3c(F)c(-c4c(C)ccc5[nH]nc(C)c45)c(Cl)cc23)C[C@@H]1C` (atropisomer, axis not shown) [Compound 151, 1-((2S,6R)-4-((S)-6-chloro-7-(3,5-dimethyl-1H-indazol-4-yl)-2-(3-(dimethylamino)azetidin-1-yl)-8-fluoroquinazolin-4-yl)-2,6-dimethylpiperazin-1-yl)prop-2-en-1-one], the Binding % result was “+ (+ indicates binding activity greater than 0% and up to 50%)”.
Take `C=CC(=O)N1C[C@H](C)N(c2nc(N3CC(NC)C3)nc3c(F)c(-c4c(C)ccc5[nH]nc(C)c45)c(Cl)cc23)C[C@H]1C` (atropisomer, axis not shown) [Compound 219, 1-((2R,5S)-4-((S)-6-chloro-7-(3,5-dimethyl-1H-indazol-4-yl)-8-fluoro-2-(3-(methylamino)azetidin-1-yl)quinazolin-4-yl)-2,5-dimethylpiperazin-1-yl)prop-2-en-1-one]: the Binding % result was “+ (+ indicates binding activity greater than 0% and up to 50%)”.
`C=CC(=O)N1C[C@H](C)N(c2nc(OCCCN(CC)CC)nc3c(F)c(-c4c(C)ccc5[nH]nc(N)c45)c(Cl)cc23)C[C@H]1C` [Compound 69, 1-((2R,5S)-4-(7-(3-amino-5-methyl-1H-indazol-4-yl)-6-chloro-2-(3-(diethylamino)propoxy)-8-fluoroquinazolin-4-yl)-2,5-dimethylpiperazin-1-yl)prop-2-en-1-one]: the Binding % result is reported as “+++ (+++ indicates binding activity greater than 80%)”.
As for `C=CC(=O)N1C[C@@H](C)N(c2nc(N3CC(N(C)C)C3)nc3c(F)c(-c4c(C)ccc5[nH]nc(C6CC6)c45)c(Cl)cc23)C[C@H]1C` (atropisomer, axis not shown) [Compound 250, 1-((2R,5R)-4-((S)-6-chloro-7-(3-cyclopropyl-5-methyl-1H-indazol-4-yl)-2-(3-(dimethylamino)azetidin-1-yl)-8-fluoroquinazolin-4-yl)-2,5-dimethylpiperazin-1-yl)prop-2-en-1-one], the Binding % result was “+ (+ indicates binding activity greater than 0% and up to 50%)”.
